The values below come from article PMC3691274, “Unraveling the Activation Mechanism of the Potato Tuber ADP-Glucose Pyrophosphorylase” (PLoS ONE, 2013).

Assay [1] addresses T1, potato tuber ADP-Glc PPase (StuS/StuL) (Solanum tuberosum, UniProt P23509+Q00081).
T1 sequence (P23509 71-521 limits assumed): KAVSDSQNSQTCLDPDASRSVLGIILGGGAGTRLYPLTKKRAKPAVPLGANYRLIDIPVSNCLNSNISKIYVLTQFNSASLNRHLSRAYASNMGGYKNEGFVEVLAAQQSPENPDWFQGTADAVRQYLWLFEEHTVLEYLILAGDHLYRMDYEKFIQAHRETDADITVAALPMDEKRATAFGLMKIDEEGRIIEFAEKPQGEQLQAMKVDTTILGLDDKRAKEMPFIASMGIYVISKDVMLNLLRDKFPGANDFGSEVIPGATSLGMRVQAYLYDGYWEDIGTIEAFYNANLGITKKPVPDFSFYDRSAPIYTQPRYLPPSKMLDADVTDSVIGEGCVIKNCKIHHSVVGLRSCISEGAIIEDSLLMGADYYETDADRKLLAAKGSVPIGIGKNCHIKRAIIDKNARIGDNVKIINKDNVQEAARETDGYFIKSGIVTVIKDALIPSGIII
T1 sequence (Q00081 7-470): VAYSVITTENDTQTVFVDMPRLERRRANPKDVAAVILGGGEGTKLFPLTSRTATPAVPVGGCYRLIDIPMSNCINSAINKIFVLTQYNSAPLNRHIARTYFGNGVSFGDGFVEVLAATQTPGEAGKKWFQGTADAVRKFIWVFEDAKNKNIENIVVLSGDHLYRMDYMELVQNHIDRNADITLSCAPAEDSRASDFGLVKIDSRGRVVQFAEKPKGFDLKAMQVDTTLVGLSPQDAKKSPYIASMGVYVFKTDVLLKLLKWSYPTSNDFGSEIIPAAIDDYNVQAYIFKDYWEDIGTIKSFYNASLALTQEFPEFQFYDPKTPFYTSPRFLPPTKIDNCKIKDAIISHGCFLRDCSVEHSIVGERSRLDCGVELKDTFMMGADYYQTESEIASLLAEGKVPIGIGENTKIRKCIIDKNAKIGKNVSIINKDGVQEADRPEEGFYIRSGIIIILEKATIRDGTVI
Particulars: read-out: A 0.5; allosteric activator; 1.5 mM ATP, 0.5 mM [14C]Glc-1P, 7 mM MgCl2, 50 mM HEPPS pH 8.0, 37°C.

For assay [2], the target named is T2, Anabaena ADP-Glc PPase (Nostoc sp. PCC 7120 = FACHB-418, UniProt P30521, Q58A).
T2 construct: gene glgC; recombinant from plasmid pAnaE3a in E. coli AC70R1-504, purified, homotetramer, no tag mentioned
T2 sequence (P30521 whole entry Q58A): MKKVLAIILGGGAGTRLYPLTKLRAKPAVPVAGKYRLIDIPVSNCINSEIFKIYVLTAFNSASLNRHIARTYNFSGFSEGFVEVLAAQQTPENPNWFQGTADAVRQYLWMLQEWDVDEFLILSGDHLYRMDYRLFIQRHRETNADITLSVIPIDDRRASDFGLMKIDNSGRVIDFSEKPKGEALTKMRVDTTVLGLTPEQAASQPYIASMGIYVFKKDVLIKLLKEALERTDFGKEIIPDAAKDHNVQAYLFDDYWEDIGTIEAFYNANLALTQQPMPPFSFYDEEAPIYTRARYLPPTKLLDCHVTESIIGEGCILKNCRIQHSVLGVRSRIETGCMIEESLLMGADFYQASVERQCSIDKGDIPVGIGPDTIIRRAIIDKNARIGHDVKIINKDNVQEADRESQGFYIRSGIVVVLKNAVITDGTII
Put plainly: colorimetric Pi release assay (PPi hydrolysed by pyrophosphatase), Hill fit. The format is biochemical. The settings on record: read-out: A 0.5. The source says:
(§1) colorimetric Pi release assay (PPi hydrolysed by pyrophosphatase), Hill fit on Anabaena ADP-Glc PPase (Ana WT)

Assay [3] deals with T3, Anabaena ADP-Glc PPase (Ana WT) (Nostoc sp. PCC 7120 = FACHB-418, UniProt P30521).
T3 construct: gene glgC; recombinant from plasmid pAnaE3a in E. coli AC70R1-504, purified, homotetramer, no tag mentioned
T3 sequence (P30521 whole entry): as the sequence (P30521 whole entry Q58A) above, with A58Q counted along it
The assay is described as above. The format is biochemical. Particulars: read-out: A 0.5.
Text: as §1

The target in assay [4] is T4, Anabaena ADP-Glc PPase (Nostoc sp. PCC 7120 = FACHB-418, UniProt P30521, W96A).
T4 construct: gene glgC; recombinant from plasmid pAnaE3a in E. coli AC70R1-504, purified, homotetramer, no tag mentioned
T4 sequence (P30521 whole entry W96A): as the sequence (P30521 whole entry Q58A) above, with A58Q, W96A counted along it
The assay is described as above. The class given is biochemical. The settings on record: read-out: A 0.5.
Text: as §1

`O=C(O)[C@H](O)COP(=O)(O)O` [3-PGA, 3-phosphoglycerate]: the EC50 in assay [1] was 54 ± 4 µM; on Anabaena ADP-Glc PPase [2], 95 ± 8 µM; in assay [3], 76 ± 4 µM; on Anabaena ADP-Glc PPase [4], 83 ± 8 µM.
